The text below walks through data of patent US10704076B2, “Multi-tiered high through-put screen for compounds effective against bacterial biofilm and compounds effective for inhibiting and eradicating bacterial biofilm” (University of Cincinnati, priority 2013, dated 2020).

In brackets after ≈: the same amount, converted by molar mass. Read-outs that look alike come from different tables or passages of the source.

One series deals with S. epidermidis. In words: MIC determination (CLSI, Mueller Hinton broth), planktonic cultures. The format is cell-based. The conditions noted are these: Staphylococcus epidermidis. How it is done: A standard protocol for determining the MIC of a specific compound as outlined by the Clinical and Laboratory Standards Institute (CLSI) was used, based on growth of the selected bacteria in Mueller Hinton (MH) broth with subsequent 2-fold dilutions of compounds of interest. Following the CLSI protocols, the MIC of each broad spectrum “hit” compound was performed in all 3 bacterial species in both aerobic and anaerobic conditions. All bacteria were grown in MH broth for 18 hrs at 37° C. The cells were then diluted 100-fold into MH broth containing compounds at concentrations ranging from 0.40-50 μM in the presence of either KNO3 or glucose to allow bacterial growth under anaerobic condition. After 24 hrs of incubation, cell growth was measured at OD600 using a SpectraMax 190 Absorbance Microplate Reader.
The HTS and CLSM assays identified and confirmed compounds that can inhibit biofilms formation in aerobic growth conditions. However, P. aeruginosa and S. epidermidis are capable of growth under anaerobic as well as aerobic conditions. […] The Minimal Inhibitory Concentrations (MIC) of the four broad agent hit compounds under both aerobic and anaerobic conditions of planktonic P. aeruginosa and S. epidermidis cultures were determined to evaluate compound efficacy in different growth conditions. The MICs for A. baumannii were determined only in aerobic conditions. To examine growth in aerobic conditions, bacteria were grown in either Mueller Hinton (MH) media only, MH media in the presence of 1% KNO3, or MH in the presence of 1% glucose. For MIC determinations under anaerobic conditions, growth was examined in MH media with 1% KNO3 or with 1% glucose.

Series [1] has as its system differentiated THP-1 cells. Nature of the series: LDH cytotoxicity assay. The format is cell-based. The conditions noted are these: 48 hr. As for the experimental part:
Following identification as an HTS broad spectrum hit and confirmation by CLSM, a cytotoxicity assay was performed on compounds 3, 7, 8 and 11. The lactate dehydrogenase assay (LDH) is commonly used as an enzymatic marker to quantitatively correlate cell death via leakage of the enzyme from dead or dying cells. An LDH assay was used to investigate the toxicity of compounds on A549 and differentiated THP-1 cells. […] Finally, 25 μl of Stop Solution was added, incubated at room temperature for 5 min, and the fluorescence signal was detected using a Synergy 2 Multi-Mode Microplate Reader (Ex. […]/Em. 590). The unit of measurement is the Relative Fluorescence Unit (RFU). The cytotoxicity of the compounds was calculated based on the percentage of compound RFUs measured (Experimental) in comparison to the RFU of the DMSO treated cells as those that were completely lysed (Maximum LDH Release). […]
The cytotoxicity of the broad agent hit compounds was examined in differentiated human THP-1, a human acute monocytic leukemia cell line and A549, a human lung adenocarcinoma epithelial cell line. […] Compounds were assessed at varying concentrations of 0, 260, 290, 300, and 570 μM for compounds 7, 11, 8, and 3, respectively, for the cytotoxicity assays. […]

Series [2] deals with P. aeruginosa established biofilm. Nature of the series: CLSM, effect of compound on the pre-existing biofilm. The format is cell-based, Pseudomonas aeruginosa.
The mark [3] stands for this setting: MH with 1% Glucose, Aerobic, read-out: Minimum Inhibition Concentration.
The mark [4] stands for this setting: MH with 1% Glucose, Anaerobic, read-out: Minimum Inhibition Concentration.
[5] abbreviates: MH with 1% KNO3, Aerobic, read-out: Minimum Inhibition Concentration.
Setting [6] is: MH with 1% KNO3, Anaerobic, read-out: Minimum Inhibition Concentration.
Where [7] appears, read: MH, Aerobic, read-out: Minimum Inhibition Concentration.
Where [8] appears, read: across all media and conditions (aerobic and anaerobic), read-out: concentration required to inhibit planktonic S. epidermidis growth (MIC).

As to `O=C(O)c1cn(C2CC2)c2c(F)c(N3CC(O)C3)c(F)cc2c1=O` [Compound 8, 1-cyclopropyl-6,8-difluoro-7-(3-hydroxyazetidin-1-yl)-4-oxoquinoline-3-carboxylic acid], the MIC was 0.65 ± 0.13 µM (≈ 0.219 µg/mL) in the series on S. epidermidis (setting [3]); 0.78 ± 0.39 µM (≈ 0.262 µg/mL) in the series with S. epidermidis (setting [4]); 0.78 ± 0.39 µM (≈ 0.262 µg/mL) with S. epidermidis (setting [5]); 0.39 µM (≈ 0.131 µg/mL) with S. epidermidis (setting [6]); 0.65 ± 10.1 µM (≈ 0.219 µg/mL) in the series on S. epidermidis (setting [7]); below 1 µM with S. epidermidis (setting [8]).
Regarding `O=C(O)c1cn(C2CC2)c2c(F)c(-c3ccncc3)c(F)cc2c1=O` [Compound 11, 7-(4-pyridyl)-1-cyclopropyl-6,8-difluoro-4-oxoquinoline-3-carboxylic acid], the MIC in the series with S. epidermidis (setting [3]) was 7.81 ± 2.71 µM (≈ 2.67 µg/mL); in the series with S. epidermidis (setting [4]), 7.29 ± 2.76 µM (≈ 2.5 µg/mL); in the series with S. epidermidis (setting [5]) it was 7.81 ± 2.71 µM (≈ 2.67 µg/mL); in the series on S. epidermidis (setting [6]) it was 4.17 ± 1.04 µM (≈ 1.43 µg/mL); with S. epidermidis (setting [7]), 5.73 ± 3.42 µM (≈ 1.96 µg/mL); in the series on S. epidermidis (setting [8]) it was 4 to 10 µM (≈ 1.37 to 3.42 µg/mL).
With `Cn1sc(Cl)c(C#N)c1=O` [Compound 3, 5-chloro-2-methyl-3-oxo-1,2-thiazole-4-carbonitrile], the MIC was 10.4 ± 2.08 µM (≈ 1.82 µg/mL) with S. epidermidis (setting [3]); 16.7 ± 4.17 µM (≈ 2.91 µg/mL) in the series on S. epidermidis (setting [4]); 25 µM (≈ 4.37 µg/mL) in the series with S. epidermidis (setting [5]); 16.7 ± 4.17 µM (≈ 2.91 µg/mL) in the series on S. epidermidis (setting [6]); 20.8 ± 4.17 µM (≈ 3.64 µg/mL) in the series with S. epidermidis (setting [7]); 10 to 25 µM (≈ 1.75 to 4.37 µg/mL) in the series on S. epidermidis (setting [8]). In addition, the “cytotoxicity (LDH)” value in series [1] (57 μM) is recorded as 60%. Moreover, the “cytotoxicity (LDH), change against 57 μM” value in series [1] (570 μM) is “decreased”. Further, in series [2], the “effective on established P. aeruginosa biofilm at 100 μM (CLSM, in words)” value is listed as “effective at killing”.
On to `NC(=S)N1CCN(c2cc3c(cc2F)c(=O)c(C(=O)O)cn3C2CC2)CC1` [Compound 7, 7-(4-carbamothioylpiperazin-1-yl)-1-cyclopropyl-6-fluoro-4-oxoquinoline-3-carboxylic acid], for which the MIC with S. epidermidis (setting [3]) is 5.86 ± 2.42 µM (≈ 2.29 µg/mL); in the series with S. epidermidis (setting [4]), 5.21 ± 1.04 µM (≈ 2.03 µg/mL); with S. epidermidis (setting [5]), 10.4 ± 2.08 µM (≈ 4.07 µg/mL); with S. epidermidis (setting [6]), 5.21 ± 1.04 µM (≈ 2.03 µg/mL); in the series on S. epidermidis (setting [7]) it was 8.33 ± 2.08 µM (≈ 3.25 µg/mL); with S. epidermidis (setting [8]) it was 4 to 10 µM (≈ 1.56 to 3.9 µg/mL). For the same compound, the “effective on established P. aeruginosa biofilm at 100 μM (CLSM, in words)” value in series [2] is “effective”.
